Patent US9931351B2, “Method for improving leptin resistance” (Kyoto University, priority 2013, dated 2018)

How the values were obtained:
Assay type in all cases: in vivo
A-ZIP/F-1 mice = assay: Test Example 3: effects to improve metabolism in A-ZIP/F-1 mice, a model of generalized lipodystrophy; settings: standard diet, 50 mg/kg/day intraperitoneal once a day, four weeks; for level of nonesterified fatty acid / level of total cholesterol / level of triglyceride: plasma
Text: A-ZIP/F-1 mice, which are used as a model of generalized lipodystrophy, have substantially no white adipocyte and thus cannot produce leptin (Moitra et al. Genes Dev 12: 3168-3181, 1998). Eight-week old male A-ZIP/F-1 mice, gifted from Dr. Reitman of National Institutes of Health, were divided into two treatment groups: “Vehicle (V)” and “Compound 57”. The mice were kept for four weeks with ad libitum feeding of standard diet (SD), and the body weight and the food intake of the mice were measured. The vehicle and Compound 57 were administered to the mice by intraperitoneal injection once a day. The dosage of Compound 57 was 50 mg/kg/day. After the four weeks the mice were sacrificed and blood, epididymal adipose tissues, and the liver were collected. The weight of the adipose tissues, the liver weight, the liver triglyceride levels, the plasma levels of glucose, insulin, total cholesterol (T-chol), triglyceride (TG) and nonesterified fatty acid (NEFA) were measured (n=5 for each group). The equivalent dosage of Compound 32 was tested in a similar manner (n=5 for each group).

[1] = tested on: wild type rats under the high fat diet condition; assay: Test Example 5: effects to improve metabolism in wild type rats under a high fat diet condition; settings: 60% high fat diet, 20 mg/kg/day intraperitoneal once a day, four weeks
Protocol: Eight-week old male wild type rats were divided into four treatment groups: “standard diet (SD)+vehicle (V)”, “60% high fat diet (HFD)+vehicle”, “60% high fat diet+Compound 57”, and “60% high fat diet+Compound 32”. The rats were kept for four weeks with ad libitum feeding, and the body weight of the rats was measured. The vehicle, Compound 32 and Compound 57 were administered to the rats by intraperitoneal injection once a day. The each dosage of Compounds 32 and 57 was 20 mg/kg/day. After the four weeks the rats were sacrificed, blood was collected, and the plasma levels of glucose and insulin were measured (n=5 for each group).

[2] = tested on: wild type mice having diet-induced obesity; assay: Test Example 4: effects to improve metabolism in wild type mice having diet-induced obesity caused by a high fat diet; settings: wild type mice obese after four-week high fat diet, continued high fat diet, 50 mg/kg/day intraperitoneal once a day, further four weeks
Protocol: Eight-week old male wild type mice and transgenic mice overexpressing leptin (LepTg) (see Test Example 1) were divided into two groups, respectively (n=4 and 12), and kept for four weeks under a standard diet (SD) or a high fat diet (HFD) condition. All the mice fed with the standard diet for the four weeks were assigned to the group “vehicle (V)” and fed with the standard diet for further four weeks, and then the body weight and the food intake of the mice were measured. The mice fed with the high fat diet for the four weeks were divided into three groups: “vehicle (V)”, “Compound 57”, and “Compound 32”, and fed with the high fat diet for further four weeks, and then the body weight and the food intake of the mice were measured. The vehicle, Compound 57, and Compound 32 were administered to the mice by intraperitoneal injection once a day. The each dosage of Compounds 57 and 32 was 50 mg/kg/day. Finally the mice were sacrificed and blood, epididymal adipose tissues, and the liver were collected. The weight of the adipose tissues, the liver weight, and the plasma levels of glucose and triglyceride were measured (n=4 for each group).

[3] = tested on: leptin-deficient ob/ob mice; assay: Test Example 2: effects to improve metabolism in leptin-deficient ob/ob mice; settings: standard diet, 50 mg/kg/day intraperitoneal once a day, four weeks; for weight of the adipose tissues: epididymal; for nonesterified fatty acid levels / total cholesterol levels / triglyceride levels: plasma
Protocol: Ob/ob mice cannot produce leptin due to a mutation in the leptin gene (Zhang et al. Nature 372: 425-432, 1994). Eight-week old male ob/ob mice, purchased from CHARLES RIVER LABORATORIES JAPAN, INC., were divided into two treatment groups: “Vehicle (V)” and “Compound 57”. The mice were kept for four weeks with ad libitum feeding of standard diet (SD), and the body weight and the food intake of the mice were measured. The vehicle and Compound 57 were administered to the mice by intraperitoneal injection once a day. The dosage of Compound 57 was 50 mg/kg/day. After the four weeks the mice were sacrificed and blood, epididymal adipose tissues, and the liver were collected. The weight of the adipose tissues, the liver weight, the liver triglyceride levels, and the plasma levels of glucose, insulin, total cholesterol (T-chol), triglyceride (TG) and nonesterified fatty acid (NEFA) were measured (n=5 for each group). The equivalent dosage of Compound 32 was tested in a similar manner (n=5 for each group).

[4] = tested on: wild type mice under the high fat diet condition; assay: Test Example 1: effects to improve metabolism in wild type mice under a high fat diet condition; settings: 60% high fat diet, 50 mg/kg/day intraperitoneal once a day, four weeks; for weight of the adipose tissues: epididymal
Protocol: Eight-week old male wild type mice and transgenic mice overexpressing leptin (LepTg) (Ogawa et al. Diabetes 48: 1822-1829, 1999, prepared in Department of Endocrinology and Metabolism, Kyoto University) were divided into three treatment groups, respectively: “standard diet (SD)+vehicle (V)”, “60% high fat diet (HFD)+vehicle”, and “60% high fat diet+Compound 57”. The mice were kept for four weeks with ad libitum feeding, and the body weight and the food intake of the mice were measured. The vehicle and Compound 57 were administered to the mice by intraperitoneal injection once a day. The dosage of Compound 57 was 50 mg/kg/day. After the four weeks the mice were sacrificed and blood, epididymal adipose tissues, and the liver were collected. The weight of the adipose tissues, the liver weight, the liver triglyceride levels, and the plasma levels of glucose, insulin, total cholesterol (T-chol), triglyceride (TG), and nonesterified fatty acid (NEFA) were measured (n=5 for each group). The equivalent dosage of Compound 32 was tested in a similar manner (n=5 for each group).

Row | SMILES | body weight (A-ZIP/F-1 mice) | food intake (A-ZIP/F-1 mice) | liver triglyceride levels (A-ZIP/F-1 mice) | liver weight (A-ZIP/F-1 mice) | plasma insulin levels (A-ZIP/F-1 mice) | random plasma glucose levels (A-ZIP/F-1 mice) | level of nonesterified fatty acid (A-ZIP/F-1 mice) | level of total cholesterol (A-ZIP/F-1 mice) | level of triglyceride (A-ZIP/F-1 mice) | plasma insulin levels [1] | random plasma glucose levels [1] | weight gain caused by the high fat diet [1] | blood level of glucose [2] | blood level of triglyceride [2] | body weight [2] | body weight [3] | food intake [3] | liver triglyceride levels [3] | liver weight [3] | plasma insulin levels [3] | further results
1 | Cc1cc(F)ccc1-c1ccc(/N=N/c2cc(S(=O)(=O)[O-])c3ccccc3c2N)cn1.[Na+] [Compound 32, 4-amino-3-[6-(4-fluoro-2-methylphenyl)pyridine-3-ylazo]naphthalene-1-sulfonic acid sodium salt] | did not | did not change | did not change | did not change | did not change | did not change | did not change | did not change | did not change | did not increase | did not increase | not observed | decreased | decreased | decreased | did not | did not change | did not change | did not change | did not change | random plasma glucose levels [3]: did not change; weight of the adipose tissues [3]: did not change; nonesterified fatty acid levels [3]: did not change; total cholesterol levels [3]: did not change; triglyceride levels [3]: did not change; body weight [4]: did not increase; food intake [4]: did not increase; liver triglyceride levels [4]: did not increase; liver weight [4]: did not increase; plasma insulin levels [4]: did not increase; plasma level of nonesterified fatty acid [4]: did not increase; plasma level of total cholesterol [4]: did not increase; plasma level of triglyceride [4]: did not increase; random plasma glucose levels [4]: did not increase; weight of the adipose tissues [4]: did not increase
2 | Nc1c(/N=N/c2ccc(-c3cccc4c3sc3ccccc34)nc2)cc(S(=O)(=O)[O-])c2ccccc12.[Na+] [Compound 57, 4-amino-3-(6-dibenzothiophene-4-ylpyridine-3-ylazo)naphthalene-1-sulfonic acid sodium salt] | slightly decreased | did not change | decreased | decreased | did not change | did not change | decreased | decreased | decreased | did not increase | did not increase | not observed | decreased | decreased | decreased | decreased | did not change | decreased | decreased | did not change | food intake [2]: significantly decreased; random plasma glucose levels [3]: did not change; weight of the adipose tissues [3]: decreased; nonesterified fatty acid levels [3]: decreased; total cholesterol levels [3]: decreased; triglyceride levels [3]: did not clearly change; body weight [4]: did not increase; food intake [4]: did not increase; liver triglyceride levels [4]: did not increase; liver weight [4]: did not increase; plasma insulin levels [4]: did not increase; plasma level of nonesterified fatty acid [4]: did not increase; plasma level of total cholesterol [4]: did not increase; plasma level of triglyceride [4]: did not increase; random plasma glucose levels [4]: did not increase; weight of the adipose tissues [4]: did not increase
